Source: patent US20230144619A1, “SALT OF ARYLAMINOPURINE DERIVATIVE, PREPARATION METHOD THEREFOR AND USE THEREOF” (CSPC Zhongqi Pharmaceutical Technology (Shijiazhuang) Co., …, priority 2020, published 2023)
Counter-ions that a name gives are not always drawn.

Columns and labels:
[1] = Solubility test (UV spectrophotometer, saturated solutions shaken 24 hours); format: physicochemical; details: 25° C.
Method: Detection instrument: Ultraviolet spectrophotometer/Evolution 300
The following solutions with pH=1.2, pH=4.5, and pH=6.8 and water were used as the solvent, and the solvent preparation process was as follows:
(1) pH=1.2 hydrochloric acid solution: To 7.65 mL of hydrochloric acid was added 1000 mL of water, and the mixture was shaken uniformly to obtain the target solution.
(2) pH=4.5 phosphate buffer solution: 6.8 g of potassium dihydrogen phosphate was taken and diluted with water to 1000 mL, and the mixture was shaken uniformly to obtain the target solution.
(2) pH=6.8 phosphate buffer solution: 6.8 g of potassium dihydrogen phosphate and 0.896 g of sodium hydroxide were taken and diluted with water to 1000 mL, and the mixture was shaken uniformly to obtain the target solution.
(4) Water: purified water
Test tubes with stopper were taken, and 10 mL of dissolution media at various pH values were precisely added to the test tubes respectively, and excessive stock drugs were added until supersaturated solutions were formed. The adding amounts were recorded. The solutions were shaken uniformly, sealed with stoppers, and shaken for 24 hours in a shaker. 2 mL of solutions were taken out at different time points respectively, and centrifuged. The resulting supernatants were taken, filtered, and the subsequent filtrates were taken for later use.
The above-mentioned saturated solutions in different solvents were taken, and solvents were added to dilute the solutions to certain volumes. The absorbances were measured at a wavelength of 287 nm.
Preparation of a solution of the reference substance: an appropriate amount of the compound represented by Formula 1 was taken as the reference substance, and precisely weighed. A solvent was added to dissolve and dilute the reference compound to produce a solution containing about 10 μg of the compound represented by Formula 1 per 1 mL. The absorbance was measured at a wavelength of 287 nm to calculate the solubility.
The salts obtained in Examples 1 and 3-17 and the compound represented by Formula 1 were subjected to the solubility test in media and the test results were shown in the following table: […]

Hygroscopicity test = format: physicochemical; details: 25±1° C., relative humidity 80%±2% (DVS, 80% RH)
Method: Detection instrument: XPE105DR
(1) A dry stoppered glass weighing bottle was taken, placed in a suitable constant-temperature desiccator at 25° C. 1° C. (with a saturated solution of ammonium chloride or ammonium sulfate in the lower part) or an artificial climate box (with the set temperature of 25° C.±1° C. and the relative humidity of 80%±2%) on the day before the test, and precisely weighed and recorded as the weight (m1).
(2) An appropriate amount of the test sample was taken and spread in the above-mentioned weighing bottle. The thickness of the test sample was generally about 1 mm, and the bottle was precisely weighed and recorded as the weight (m2).
(3) The stopper was removed to open the weighing bottle, and the opened weighing bottle and the stopper were placed under the above-mentioned constant temperature and humidity conditions for 24 hours.
(4) The opened weighing bottle was stoppered, precisely weighed, and recorded as the weight (m3).
Percentage increase in mass=(m3−m2)/(m2−m1)×100%
(5) The description of hygroscopicity characteristics and the definition for the weight gain due to hygroscopicity:
Deliquescence: Sufficient water was absorbed to form a liquid.
Very hygroscopic: the weight gain due to hygroscopicity was not less than 15%.
Hygroscopic: the weight gain due to hygroscopicity was less than 15% but not less than 2%.
Slightly hygroscopic: the weight gain due to hygroscopicity was less than 2% but not less than 0.2%.
Not or nearly not hygroscopic: the weight gain due to hygroscopicity was less than 0.2%.
Appropriate amounts of the salt samples obtained from Examples 1 and 3-17 were subjected to the hygroscopicity test at a temperature of 25±1° C. under a relative humidity of 80%±2%, and the results were as follows: […]

DSC and TGA tests = format: physicochemical; details: onset temperature
Method: 6. Differential Scanning Calorimetry-Thermogravimetric Analysis (DSC-TGA)
Detection instrument: NETZSCH STA 449F3
Temperature range: 20° C.-350° C.;
Heating rate: 10.0 (K/min);
7. Differential Scanning Calorimetry (DSC)
Detection instrument: NETZSCH DSC 214 Polyma
Temperature range: 20° C.-250° C.;
Heating rate: 5.0 (K/min);
8. Thermogravimetric Analysis (TGA)
Detection instrument: METTLER and SDT Q600
The salts obtained in Examples 1 and 3-17 and the compound represented by Formula 1 were subjected to the DSC and TGA tests in media, and the test results were shown in the following table: […]

EGFR(h) = EGFR(h) (Homo sapiens, UniProt P00533); test: Kinase inhibitory activity test (per WO2011/147066); format: biochemical
[2] = system: MV4-11 (FLT3-ITD mutation) subcutaneous tumor model; test: In-vivo anti-tumor test, MV4-11 subcutaneous tumor model; parameters: species or system nude mice; details: MV4-11 model, once daily oral administration for 21 days
Method: (§1) The salt sample obtained from Example 1 was tested (specifically for FLT3-ITD acute myeloid leukemia, non-small cell lung cancer with EGFR activating mutations, or Ph-positive chronic myeloid leukemia) according to the in-vivo anti-tumor test described in the biological assessment of the patent application WO2011/147066.

[3] = system: K562 (BCR-Abl gene rearrangement) subcutaneous tumor model; test: In-vivo anti-tumor test, K562 subcutaneous tumor model; parameters: species or system nude mice; details: 70 mg/kg, once daily oral administration for 18 days
Method: as §1

Chain of EGFR(h) (P00533 25-1210): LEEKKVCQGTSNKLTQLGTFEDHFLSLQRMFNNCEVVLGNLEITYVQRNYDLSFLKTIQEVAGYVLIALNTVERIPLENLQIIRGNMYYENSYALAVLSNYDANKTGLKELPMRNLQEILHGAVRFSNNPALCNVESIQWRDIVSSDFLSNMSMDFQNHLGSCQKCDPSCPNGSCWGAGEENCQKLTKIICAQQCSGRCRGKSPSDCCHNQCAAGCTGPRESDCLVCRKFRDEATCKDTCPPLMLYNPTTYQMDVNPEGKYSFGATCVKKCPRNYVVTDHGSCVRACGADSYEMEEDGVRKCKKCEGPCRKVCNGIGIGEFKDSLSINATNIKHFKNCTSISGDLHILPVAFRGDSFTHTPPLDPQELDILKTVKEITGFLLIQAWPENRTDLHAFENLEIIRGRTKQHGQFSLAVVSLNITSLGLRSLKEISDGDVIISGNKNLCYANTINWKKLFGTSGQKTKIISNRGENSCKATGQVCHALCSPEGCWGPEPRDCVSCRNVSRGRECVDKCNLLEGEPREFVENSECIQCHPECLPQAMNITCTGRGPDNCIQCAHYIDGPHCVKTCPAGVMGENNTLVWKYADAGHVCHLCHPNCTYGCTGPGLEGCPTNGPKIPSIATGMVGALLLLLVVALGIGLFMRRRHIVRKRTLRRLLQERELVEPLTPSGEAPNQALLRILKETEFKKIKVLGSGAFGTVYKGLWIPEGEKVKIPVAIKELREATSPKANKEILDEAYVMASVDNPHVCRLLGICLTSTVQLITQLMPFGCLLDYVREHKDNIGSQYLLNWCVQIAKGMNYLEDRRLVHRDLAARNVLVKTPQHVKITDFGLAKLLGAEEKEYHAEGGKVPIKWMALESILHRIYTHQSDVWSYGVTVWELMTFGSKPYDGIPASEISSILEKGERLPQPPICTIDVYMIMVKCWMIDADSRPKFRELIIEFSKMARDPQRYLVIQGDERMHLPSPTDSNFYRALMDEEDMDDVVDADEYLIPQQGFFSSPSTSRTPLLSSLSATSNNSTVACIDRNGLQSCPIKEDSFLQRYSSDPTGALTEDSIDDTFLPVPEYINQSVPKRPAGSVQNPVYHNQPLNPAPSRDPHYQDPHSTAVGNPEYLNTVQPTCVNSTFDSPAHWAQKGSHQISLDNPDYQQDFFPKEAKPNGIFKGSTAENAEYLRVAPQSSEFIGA

Solubility, Water medium pH = 1.2 ([1]; pH=1.2 hydrochloric acid solution): 33.89 mg/mL
Solubility, Water medium pH = 4.5 ([1]; pH=4.5 phosphate buffer solution): 47.27 mg/mL
Solubility, Water medium pH = 6.8 ([1]; pH=6.8 phosphate buffer solution): 50.62 mg/mL
Solubility, Water medium ([1]; water (purified water)): 40.41 mg/mL
Weight gain due to hygroscopicity (Hygroscopicity test): 0.7%
TGA: starting to lose the acid (DSC and TGA tests): ~140 °C (see FIG. 19)
TGA: starting to lose the water of crystallization (DSC and TGA tests): crystallization at about 40° C.;
IC50 (EGFR(h)): 0.042 µM
Compound: CC(C)n1c(Nc2cccnc2)nc2cnc(Nc3ccc(N4CCN(C)CC4)cc3)nc21 [Example 1, arylaminopurine derivative.trihydrochloride.pentahydrate]
Hygroscopicity (Hygroscopicity test): Slightly hygroscopic (the weight gain due to hygroscopicity was less than 2% but not less than 0.2%.)
tumor growth ([2]; 5 mg/kg): completely inhibit the tumor growth
tumor growth ([2]; 10 mg/kg): complete regression of the tumor
tumor growth ([2]; 20 mg/kg): complete regression of the tumor
tumor growth [3]: effectively inhibit the tumor growth
tumor inhibition rate [3]: 71.3%
